Measured values as given in PubChem BioAssay AID2060910 (Molecular Pharmacology Branch, DTP, NCI, 2025).
pIC50: −log10 of the molar value.

System: 242566-281-R-J2-PDC complex spheroid viability
Assay: Anticancer human tumor 242566-281-R-J2-PDC patient-derived pancreatic carcinoma cell line growth inhibition [RAS]
Conditions: for pIC50: curve of first compound; for viability, T/C: stronger effect = lower value
Summary of the method: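 Multi-cell-type spheroids: tumor cells plus HUVEC endothelial cells and mesenchymal stem cells. RAS-pathway inhibitors were combined with targeted agents, each dosed in half-log steps down from clinical Cmax, or from 10 microM when Cmax was unknown.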

[1] = second compound 0.000949 µM, first compound 0.0316 µM
[2] = second compound 0.000949 µM, first compound 0.1 µM
[3] = second compound 0.000949 µM, first compound 0.316 µM
[4] = second compound 0.000949 µM, first compound 1 µM
[5] = second compound 0.003 µM, first compound 0.0316 µM
[6] = second compound 0.003 µM, first compound 0.1 µM
[7] = second compound 0.003 µM, first compound 0.316 µM
[8] = second compound 0.003 µM, first compound 1 µM
[9] = second compound 0.00949 µM, first compound 0.0316 µM
[10] = second compound 0.00949 µM, first compound 0.1 µM
[11] = second compound 0.00949 µM, first compound 0.316 µM
[12] = second compound 0.00949 µM, first compound 1 µM
[13] = second compound 0.03 µM, first compound 0.0316 µM
[14] = second compound 0.03 µM, first compound 0.1 µM
[15] = second compound 0.03 µM, first compound 0.316 µM
[16] = second compound 0.03 µM, first compound 1 µM
[17] = second compound 0.0949 µM, first compound 0.0316 µM
[18] = second compound 0.0949 µM, first compound 0.1 µM
[19] = second compound 0.0949 µM, first compound 0.316 µM
[20] = second compound 0.0949 µM, first compound 1 µM
[21] = second compound 0.3 µM, first compound 0.0316 µM
[22] = second compound 0.3 µM, first compound 0.1 µM
[23] = second compound 0.3 µM, first compound 0.316 µM
[24] = second compound 0.3 µM, first compound 1 µM
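Also: spheroids exposed to compound for 7 days before readout.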
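For viability, T/C in this document: 100% = DMSO vehicle control wells.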

Question: Which results are given for `CC(=O)OC12COC1CC(O)C1(C)C(=O)C(O)C3=C(C)C(OC(=O)C(O)C(NC(=O)OC(C)(C)C)c4ccccc4)CC(O)(C(OC(=O)c4ccccc4)C21)C3(C)C` (centres undefined) + CCn1c(-c2cc(N3CCN(C)CC3)cnc2C(C)OC)c2c3cc(ccc31)-c1csc(n1)CC(NC(=O)C1CC1C)C(=O)N1CCCC(N1)C(=O)OCC(C)(C)C2?
Answer: pIC50 (second compound 0.000949 µM): > 7.50; pIC50 (second compound 0.003 µM): > 7.50; pIC50 (second compound 0.00949 µM): > 7.50; pIC50 (second compound 0.03 µM): > 7.50; pIC50 (second compound 0.0949 µM): > 7.50; pIC50 (second compound 0.3 µM): > 7.50; viability, T/C [1]: 38.4%; viability, T/C [2]: 32.3%; viability, T/C [3]: 21.8%; viability, T/C [4]: 32.2%; viability, T/C (second compound 0.000949 µM, first compound 3.16 µM): 31.9%; viability, T/C (second compound 0.000949 µM, first compound 10 µM): 27.6%; viability, T/C [5]: 34.2%; viability, T/C [6]: 23.3%; viability, T/C [7]: 22.6%; viability, T/C [8]: 26.7%; viability, T/C (second compound 0.003 µM, first compound 3.16 µM): 32.5%; viability, T/C (second compound 0.003 µM, first compound 10 µM): 25.2%; viability, T/C [9]: 26%; viability, T/C [10]: 19%; viability, T/C [11]: 21.9%; viability, T/C [12]: 20.2%; viability, T/C (second compound 0.00949 µM, first compound 3.16 µM): 20.9%; viability, T/C (second compound 0.00949 µM, first compound 10 µM): 16.8%; viability, T/C [13]: 19.1%; viability, T/C [14]: 16.3%; viability, T/C [15]: 17.9%; viability, T/C [16]: 19%; viability, T/C (second compound 0.03 µM, first compound 3.16 µM): 11.6%; viability, T/C (second compound 0.03 µM, first compound 10 µM): 10%; viability, T/C [17]: 11.7%; viability, T/C [18]: 11.9%; viability, T/C [19]: 13.4%; viability, T/C [20]: 10.5%; viability, T/C (second compound 0.0949 µM, first compound 3.16 µM): 6.83%; viability, T/C (second compound 0.0949 µM, first compound 10 µM): 6.76%; viability, T/C [21]: 9.32%; viability, T/C [22]: 9.15%; viability, T/C [23]: 7.89%; viability, T/C [24]: 8.09%; viability, T/C (second compound 0.3 µM, first compound 3.16 µM): 7.91%; viability, T/C (second compound 0.3 µM, first compound 10 µM): 6.31%

Question: `Nc1ccn(C2OC(CO)C(O)C2(F)F)c(=O)n1` (centres undefined) + CCn1c(-c2cc(N3CCN(C)CC3)cnc2C(C)OC)c2c3cc(ccc31)-c1csc(n1)CC(NC(=O)C1CC1C)C(=O)N1CCCC(N1)C(=O)OCC(C)(C)C2 was tested. Which pIC50 (second compound 0.000949 µM) did it give?
Answer: The pIC50 was 7.40.

Question: What about the pIC50 (second compound 0.003 µM) of the same molecule?
Answer: The pIC50 was 7.64.

Question: What about the pIC50 (second compound 0.00949 µM) of the same molecule?
Answer: Its pIC50 is greater than 8.50.

Question: What about the pIC50 (second compound 0.03 µM) of the same molecule?
Answer: Its pIC50 is greater than 8.50.

Question: And the pIC50 (second compound 0.0949 µM)?
Answer: Its pIC50 is greater than 8.50.

Question: What about the pIC50 (second compound 0.3 µM) of the same molecule?
Answer: Its pIC50 is greater than 8.50.

Question: What about the viability, T/C (second compound 0.000949 µM, first compound 0.00316 µM) of the same molecule?
Answer: The viability, T/C was 94.2%.

Question: And the viability, T/C (second compound 0.000949 µM, first compound 0.01 µM)?
Answer: Its viability, T/C is 87.7%.

Question: What about the viability, T/C [1] of the same molecule?
Answer: Its viability, T/C is 46.2%.

Question: What about the viability, T/C [2] of the same molecule?
Answer: Its viability, T/C is 36.5%.

Question: What about the viability, T/C [3] of the same molecule?
Answer: The viability, T/C was 20.9%.

Question: What about the viability, T/C [4] of the same molecule?
Answer: Its viability, T/C is 10.3%.

Question: What about the viability, T/C (second compound 0.003 µM, first compound 0.00316 µM) of the same molecule?
Answer: Its viability, T/C is 78.2%.

Question: And the viability, T/C (second compound 0.003 µM, first compound 0.01 µM)?
Answer: The viability, T/C was 57.9%.

Question: And the viability, T/C [5]?
Answer: The viability, T/C was 43.5%.

Question: And the viability, T/C [6]?
Answer: The viability, T/C was 35.3%.

Question: And the viability, T/C [7]?
Answer: The viability, T/C was 24.3%.

Question: And the viability, T/C [8]?
Answer: The viability, T/C was 10.9%.

Question: What about the viability, T/C (second compound 0.00949 µM, first compound 0.00316 µM) of the same molecule?
Answer: Its viability, T/C is 50.5%.

Question: What about the viability, T/C (second compound 0.00949 µM, first compound 0.01 µM) of the same molecule?
Answer: Its viability, T/C is 36.2%.

Question: And the viability, T/C [9]?
Answer: The viability, T/C was 38.3%.

Question: And the viability, T/C [10]?
Answer: The viability, T/C was 28.5%.

Question: And the viability, T/C [11]?
Answer: Its viability, T/C is 20.7%.

Question: What about the viability, T/C [12] of the same molecule?
Answer: Its viability, T/C is 16.6%.

Question: And the viability, T/C (second compound 0.03 µM, first compound 0.00316 µM)?
Answer: The viability, T/C was 30.6%.

Question: What about the viability, T/C (second compound 0.03 µM, first compound 0.01 µM) of the same molecule?
Answer: Its viability, T/C is 27.1%.

Question: What about the viability, T/C [13] of the same molecule?
Answer: The viability, T/C was 25.5%.

Question: And the viability, T/C [14]?
Answer: The viability, T/C was 20.9%.

Question: And the viability, T/C [15]?
Answer: The viability, T/C was 16.9%.

Question: What about the viability, T/C [16] of the same molecule?
Answer: Its viability, T/C is 16.7%.

Question: And the viability, T/C (second compound 0.0949 µM, first compound 0.00316 µM)?
Answer: Its viability, T/C is 22.3%.

Question: And the viability, T/C (second compound 0.0949 µM, first compound 0.01 µM)?
Answer: The viability, T/C was 21.4%.

Question: And the viability, T/C [17]?
Answer: Its viability, T/C is 21.3%.

Question: And the viability, T/C [18]?
Answer: The viability, T/C was 19.2%.

Question: What about the viability, T/C [19] of the same molecule?
Answer: Its viability, T/C is 11.7%.

Question: What about the viability, T/C [20] of the same molecule?
Answer: The viability, T/C was 13.9%.

Question: What about the viability, T/C (second compound 0.3 µM, first compound 0.00316 µM) of the same molecule?
Answer: Its viability, T/C is 19.7%.

Question: What about the viability, T/C (second compound 0.3 µM, first compound 0.01 µM) of the same molecule?
Answer: The viability, T/C was 18.2%.

Question: And the viability, T/C [21]?
Answer: The viability, T/C was 18.5%.

Question: And the viability, T/C [22]?
Answer: Its viability, T/C is 14.5%.

Question: What about the viability, T/C [23] of the same molecule?
Answer: Its viability, T/C is 13.1%.

Question: And the viability, T/C [24]?
Answer: Its viability, T/C is 14.4%.
